Entries after “also recorded” stand apart in the source; their conditions may differ.
Experiments:
Format in all cases: cell-based, human
[1] = test system: potassium channels in A549, lung carcinoma cell lines; test: FLUXOR potassium (K^+) channel assay, Thallium (Tl^+) indicator; conditions: HAMLET 35 μM; for effect of channel blocker on K^+ flux in response to HAMLET: carcinoma cells, 30 minutes pretreatment; for potassium channel activity (fluorescence signal): oleate 175 μM (5× the HAMLET concentration), peptides mixed with oleate and immediately added
Procedure: The FLUXOR™ potassium (K^+) channel assay was performed on the TECAN infinite F200 (Tecan Group, Switzerland), according to the manufacturer's instructions (Invitrogen). Briefly, this involved FLUXOR™ loading buffer (Hank's Balanced Saline Solution, (HBSS) buffered with 20 mM HEPES and pH adjusted to 7.4 with NaOH. POWERLOAD™ concentrate and water-soluble Probenecid were used respectively to enhance the dye solubility and retention, respectively. Media were removed from the cell plates manually, and 80 μL of loading buffer containing the FLUXOR™ dye mix was applied to each well. Once inside the cell, the nonfluorescent AM ester form of the FLUXOR™ dye is cleaved by endogenous esterases into a thallium-sensitive indicator. The dye was loaded for 60 minutes at room temperature and then removed with the supernatant. After washing with dye-free PBS buffer, a final volume of 80 μL assay buffer containing water-soluble probenecid was added. Cells received one of the following channel inhibitors: 3.3 μL per well of 30 mM amiloride, 3.0 μL of 32 mM BaCl2, 1.8 μL of 5.4 mM gadolinium, 3 μL 3.2 mM tetrandrine and 2.3 μL of 2.6 mM ruthenium red, and were then incubated at room temperature (23-25° C.) for 30 minutes to allow equilibration of the test compounds. Prior to injection, stimulation buffer was prepared from the chloride-free buffer and thallium reagents provided in the kit as well as HAMLET, to achieve a final added concentrations of 2 mM free Tl+ and 35 μM HAMLET after 1:5 dilution upon injection of the stimulus buffer onto cells that had been loaded with FLUXOR™ dye.
(§1) To distinguish Ca^2+ mobilization from intracellular stores from the influx of extracellular Ca^2+, EGTA was then added to the cell medium. […] K^+ fluxes across tumor cell membranes were subsequently quantified under the same experimental conditions, using the fluorophore FLUXOR™, which fluoresces after thallium has entered cells through K^+ channels.
Potassium channel activity was therefore measured in A549, lung carcinoma cell lines using an indicator, which emits fluorescence signal upon entering the cells via opened potassium channels, Thallium (Tl^+) indicator (FIG. 18).

[2] = test system: p38, HSP27, ERK1/2 in kidney and lung carcinoma cells; test: MAPK phosphorylation (phospho-MAPK antibody arrays, Western blot); conditions: for effect of ion channel inhibitor on suppression of p-ERK1/2 phosphorylation by HAMLET / effect of ion channel inhibitor on HAMLET-induced p38 phosphorylation: lung carcinoma cells; for effect of ion channel inhibitor on HAMLET-induced p38 phosphorylation: 30 minutes pretreatment, HAMLET 21 and 35 μM, 1 hour; for phosphorylation of p38: Western blot
Text: Equal volumes of lysates were separated by SDS-PAGE on 4-12% Bis-Tris gels (Invitrogen) and blotted onto PVDF membranes. For other Western blots, 200,000 cells were allowed to adhere overnight in a 6-well plate. After HAMLET treatment the cells were washed with PBS and lysed in M-PER lysis buffer (Pierce) containing Complete protease inhibitor cocktail and PhosSTOP phosphatase inhibitor cocktail (both from Roche). The detached cells were collected by centrifugation. The lysates were cleared by centrifugation and protein concentrations were measured using the DC Protein Assay (Bio-Rad Laboratories, Hercules, Calif.). Equal amounts of protein were separated by SDS-PAGE on 4-12% Bis-Tris gels (Invitrogen) and blotted onto PVDF membranes (GE Healthcare). Membranes were saturated with BSA (GAPDH) or nonfat dry milk (phospho-p38, p38, phospho-ERK1/2, ERK1/2) and incubated with anti-p38, anti-phospho-p38, anti-ERK1/2, anti-phospho-(Thr202/Tyr204)-p44/42 (all 1:500-1000, Cell Signaling Technology), anti-ATF6 (1:1000, IMG-273, Imgenex), anti-phospho-eIF2α (Ser51), (1:500, Cell Signaling Technology) or anti-GAPDH (1:3000-5000, Novus Biologicals) antibodies followed by horseradish peroxidase-conjugated anti-rabbit (1:1000, DakoCytomation, Glostrup, Denmark) or anti-mouse (1:40000-50000, Novus Biologicals) antibodies for staining. Bound antibodies were detected with ECL Plus Western Blotting Reagent (GE Healthcare, Little Chalfont, UK) and GelDoc equipment (Bio-Rad Laboratories, Hercules, Calif.). If required, membranes were stripped with Restore Western Blot Stripping Buffer (Pierce, Rockford, Ill.), blocked and reprobed with new antibodies. MAP kinase phosphorylation was analyzed on a Human Phospho-MAPK array (Proteome Profiler Array, R&D Systems) as per the manufacturer's instruction. Band and spot intensities were quantified using ImageJ (Abramoff et al., July 2004, Biophotonics International). Cytokine quantification (IL6, IL8, TNFα) was performed on an […] 1000 immunoassay system (Siemens Diagnostics).
P38 MAPKs are activated by dual phosphorylation on conserved threonine and tyrosine residues by MKK3/6 and when phosphorylated, a wide variety of effector proteins, including MAPKAPK2 kinases, HSP27 chaperones and ATF2 and CHOP transcription factors become active (Cuenda et al., 2007, Biochimica et Biophysica Acta 1773: 1358-1375).

[3] = test system: lung carcinoma cells (A549); test: intracellular Ca^2+, Fluo-4, real time confocal microscopy; conditions: for effect of channel blocker on first, EGTA insensitive Ca^2+ peak in response to HAMLET: 30 minutes pretreatment
Procedure: To examine if HAMLET modulates ion channel activity in tumor cells, we first quantified changes in intracellular Ca^2+ and K^+. Lung carcinoma cells were first preloaded with the Fluo-4 Ca^2+ fluorophore Fluo-, exposed to HAMLET (35 μM) and examined by real time confocal microscopy for changes in fluorescence intensity (FIG. 1A). The Ca^2+ ionophore A23187, which acts as a Ca^2+ shuttle across cell membranes, was used as a positive control (Abbott et al., 1979, Antimicrobial Agents and Chemotherapy 16, 808-812).
as §1
To further characterize ion channel activation by HAMLET, carcinoma cells were pretreated with defined channel blockers. Amiloride is a sodium channel inhibitor with effects on mechanosensitive channels, barium chloride (BaCl2) is a general K^+ channel inhibitor, gadolinium chloride (GdCl3) inhibits mechanosensitive channels, Ruthenium red is a general Ca^2+ inhibitor and tetrandrine inhibits large conductance, Ca^2+ activated K^+ channels. The carcinoma cells were preincubated with Fluo-4 as described above, pretreated with each of the channel inhibitors for 30 minutes, exposed to HAMLET (35 μM) and examined by real time confocal imaging. Furthermore, cells treated with EGTA were compared to cells with intact extracellular Ca^2+ levels, to distinguish the early peak from the subsequent influx of Ca^2+ (FIG. 1B, Table in FIG. 8).

Molecule: [Ba+2].[Cl-].[Cl-] [BaCl2, barium chloride]
- effect of channel blocker on K^+ flux in response to HAMLET [1]: intermediate inhibition
- effect of ion channel inhibitor on suppression of p-ERK1/2 phosphorylation by HAMLET [2]: reversed
- effect of ion channel inhibitor on HAMLET-induced p38 phosphorylation [2]: inhibited
- effect of channel blocker on first, EGTA insensitive Ca^2+ peak in response to HAMLET ([3]; HAMLET 35 μM): inhibited

Molecule: NC(N)=NC(=O)c1nc(Cl)c(N)nc1N [amiloride, 3,5-diamino-6-chloro-N-(diaminomethylene)pyrazine-2-carboxamide]
- effect of channel blocker on K^+ flux in response to HAMLET [1]: intermediate inhibition
- effect of ion channel inhibitor on suppression of p-ERK1/2 phosphorylation by HAMLET [2]: reversed
- effect of ion channel inhibitor on HAMLET-induced p38 phosphorylation [2]: inhibited
- effect of channel blocker on first, EGTA insensitive Ca^2+ peak in response to HAMLET ([3]; HAMLET 35 μM): inhibited

Molecule: CCCCCCCC/C=C\CCCCCCCC(=O)[O-].[Na+] [oleate, sodium oleate]
- potassium channel activity (fluorescence signal) [1]: potassium channels were activated by oleate alone, but at lower efficiency than HAMLET
- phosphorylation of p38 [2]: phosphorylation of p38

B1: HAMLET (protein, UniProt P00709 20-142, looked up)
Alpha-lactalbumin: KQFTKCELSQLLKDIDGYGGIALPELICTMFHTSGYDTQAIVENNESTEYGLFQISNKLWCKSSQVPQSRNICDISCDKFLDDDITDDIMCAKKILDIKGIDYWLAHKALCTEKLEQWLCEKL
modifications: oleic acid complex
- potassium channel activity (fluorescence signal) [1]: rapidly opened the K^+ channels; also recorded: triggers a rapid potassium flux
- ERK1/2 phosphorylation ([2]; 30 minutes): loss of ERK1/2 phosphorylation
- p38α and HSP27 phosphorylation ([2]; 30 minutes, phospho-MAPK antibody arrays): phosphorylating p38α and HSP27
- phosphorylation of p38 [2]: dose- and time-dependent
- cells involved in Ca^2+ response [3]: about 50%
- increase in intracellular Ca^2+ levels relative to ionophore ([3]; HAMLET 35 μM): 31 % of the ionophore
- intracellular Ca^2+ response ([3]; HAMLET 35 μM): rapid, step-wise increase in intracellular Ca^2+
- second Ca^2+ peak ([3]; HAMLET 35 μM): about 100 seconds
- start of increase in intracellular Ca^2+ ([3]; HAMLET 35 μM): about 30 seconds

From patent publication US9487561B2, “Biologically active complex and its preparation” (HAMLET PHARMA AB, priority 2010, dated 2016)
